Assay results from PubChem BioAssay (NCI).
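Exposure lasted 48 hours, with cells grown in 96-well plates and compounds tested at five concentrations. Abbreviation: GI50, concentration required for 50% inhibition of growth. TGI marks complete inhibition of growth.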

How the values were obtained:
Experiment in all cases: inhibition of tumour cell growth, NCI panel, 48 h
A498 renal = system: A498 renal
ACHN renal = system: ACHN renal
BT-549 breast = system: BT-549 breast
CCRF-CEM leukemia = system: CCRF-CEM leukemia
HCT-116 colon = system: HCT-116 colon
MDA-N = system: MDA-N
NCI-H522 lung = system: NCI-H522 lung
PC-3 prostate = system: PC-3 prostate
SNB-19 CNS = system: SNB-19 CNS
UACC-62 melanoma = system: UACC-62 melanoma
NCI/ADR-RES ovarian = system: NCI/ADR-RES ovarian
U251 CNS = system: U251 CNS

Compound	TGI (A498 renal) [µM]	TGI (ACHN renal) [µM]	TGI (BT-549 breast) [µM]	TGI (CCRF-CEM leukemia) [µM]	TGI (HCT-116 colon) [µM]	TGI (MDA-N) [µM]	TGI (NCI-H522 lung) [µM]	TGI (PC-3 prostate) [µM]	TGI (SNB-19 CNS) [µM]	TGI (UACC-62 melanoma) [µM]	TGI (NCI/ADR-RES ovarian) [µM]	TGI (U251 CNS) [µM]	GI50 (A498 renal) [µM]	GI50 (ACHN renal) [µM]	GI50 (CCRF-CEM leukemia) [µM]	GI50 (HCT-116 colon) [µM]	GI50 (NCI/ADR-RES ovarian) [µM]	GI50 (PC-3 prostate) [µM]	GI50 (SNB-19 CNS) [µM]	GI50 (UACC-62 melanoma) [µM]
Cc1nn(C(=O)Cc2ccccc2)c2c1C(c1ccc(/C=C/c3ccccc3)cc1)SC(N)=N2 (stereo not drawn)	> 100	> 100	> 100	> 100	> 100	> 100	> 100	> 100	> 100	> 100	–	–	–	–	–	–	–	–	–	–
Cc1csc(=Nc2ccccc2)n1CCC(O)(P(=O)(O)O)P(=O)(O)O	–	> 100	> 100	–	> 100	> 100	> 100	> 100	> 100	> 100	> 100	–	–	–	–	–	–	–	–	–
N#CCc1nc(-c2cc3ccccc3oc2=O)cs1	–	> 100	66.8	> 100	> 100	> 100	> 100	> 100	> 100	45.6	> 100	> 100	–	–	–	–	–	–	–	–
Cc1ccc2c(c1C)CC1(Cc3ccc(C)c(C)c3C1=O)C2=O (stereo not drawn)	–	> 100	> 100	> 100	> 100	> 100	> 100	> 100	> 100	> 100	> 100	> 100	–	–	–	–	–	–	–	–
N#CC1=C(S)N(C2OC(CO)C(O)C(O)C2O)C(c2ccccc2)=CC1c1ccco1 (stereo not drawn)	> 100	–	> 100	> 100	> 100	> 100	> 100	> 100	> 100	42.1	> 100	53.5	–	–	–	–	–	–	–	–
Cc1cc2nnn(C3CCCCO3)c2cc1C (stereo not drawn)	–	> 100	> 100	> 100	> 100	> 100	> 100	> 100	> 100	> 100	> 100	> 100	–	–	–	–	–	–	–	–
C/C=C1/C=CC2c3[nH]c4ccccc4c3CCN2C1 (stereo not drawn)	–	> 400	–	> 400	> 400	–	> 400	–	> 400	> 400	–	> 400	–	–	–	–	–	–	–	–
CC(C)(C)n1c(=O)n2c(-c3ccccc3)c(-c3ccccc3)n2c1=O	> 100	> 100	> 100	–	> 100	> 100	56.5	> 100	> 100	> 100	> 100	> 100	–	–	–	–	–	–	–	–
CC[C@@H]1CC[C@@H]2[C@H](CC[C@]3(C)[C@@H](O[N+](=O)[O-])CC[C@@H]23)[C@H]1C(C)=O	95.9	> 100	> 100	> 100	> 100	> 100	80.9	74.9	> 100	–	> 100	> 100	–	–	–	–	–	–	–	–
CC(=O)n1c2ccc(Br)cc2c2nc3ccccc3nc21	–	> 100	> 100	> 100	> 100	> 100	> 100	> 100	> 100	> 100	> 100	> 100	–	–	–	–	–	–	–	–
CCOC(OCC)(OCC)C(Br)CC (stereo not drawn)	> 100	> 100	–	> 100	19	–	> 100	–	> 100	> 100	–	> 100	–	–	–	–	–	–	–	–
O=[N+]([O-])c1ccc2c3c1[C@@H]1O[C@@H]1c1cccc(c1-3)[C@@H]1O[C@H]21	8.87	–	21.1	8.17	5.95	10.5	3.33	> 28.5	> 58.5	31.6	> 38.5	11.8	–	–	–	–	–	–	–	–
CCOC(=O)c1c(Cl)c2c(n1Cc1ccccc1)-c1oncc1CCC2	> 100	> 100	–	> 100	> 100	–	–	> 100	> 100	> 100	> 100	–	4.38	5.89	2.21	4.02	2.83	3.17	> 100	4.01
CCN(CC)c1ccc(Cl)c2c1C(O)(C(C)C)C2(C)C (stereo not drawn)	35.7	31.3	–	39.9	27	–	29.9	–	28.7	–	–	30.5	–	–	–	–	–	–	–	–
CCN(C(=O)N[C@@H](CC(C)C)C(=O)NCC(=O)OC)c1ccccc1	–	> 100	> 100	> 100	> 100	> 100	> 100	> 100	> 100	97.1	> 100	> 100	–	–	–	–	–	–	–	–
C=C1CC[C@@H]2[C@](C)(COC(=O)CCC(=O)OC)CCC[C@@]2(C)[C@@H]1CCC1=CC(=O)OC1	> 100	> 100	> 100	58.8	> 100	> 100	> 100	> 100	> 100	–	> 100	> 100	–	–	–	–	–	–	–	–
COC(=O)c1c(C)cccc1C1CN=NC12Cc1cc(C)c(C)cc1C2=O (stereo not drawn)	–	> 100	> 100	> 100	> 100	99.5	54.6	> 100	> 100	> 100	> 100	> 100	–	–	–	–	–	–	–	–
CS(=O)(=O)CCC1CCC(=O)O1 (stereo not drawn)	> 100	90.4	> 100	–	> 100	–	> 100	> 100	> 100	–	> 100	> 100	–	–	–	–	–	–	–	–
CC(=O)Nc1nc2c(=O)c3ccccc3sc2s1	> 100	> 100	> 100	> 100	> 100	> 100	–	> 100	> 100	> 100	> 100	–	–	–	–	–	–	–	–	–
COC(=O)C1=C(OC)C(=P2(c3ccccc3)CC(c3ccccc3)=C2c2ccccc2)C(C(=O)OC)=C1C(=O)OC (stereo not drawn)	–	> 100	> 100	4.74	> 100	> 100	13.6	> 100	> 100	> 100	> 100	> 100	–	–	–	–	–	–	–	–
